Experimental data taken from patent US8188059B2, “Compounds and methods for modulating expression of GCGR” (Isis Pharmaceuticals, Inc., priority 2006, dated 2012).
Strand notation (5' to 3'): a small letter for the sugar, then the base; units joined by * are phosphorothioate-linked, units joined directly phosphodiester-linked; [ ] holds rarer units or linkages, { } end groups; capitals alone tell only the bases. e = 2'-O-(2-methoxyethyl) (MOE); [5mC] = 5-methylcytosine; d = 2'-deoxy (DNA)

Assays:
SGLT2 mRNA = SGLT2 mRNA levels in kidney of Balb/c mice, twenty 1-10-1 MOE gapmers at 350 nmol/kg, PPS 534 and PPS 553 (Example 18, Table 74); assay type: in vivo, mouse; conditions: 350 nmol/kg i.p. twice per week for two weeks
Description: Twenty 1-10-1 MOE gapmers that are complementary to human/monkey/mouse/rat SGLT2 were designed, synthesized and tested in vivo for suppression of SGLT2 mRNA levels in kidney. Data are averages from two experiments in which male 6-week old Balb/c mice were administered intraperitoneal injections of 350 nmol/kg of oligonucleotide, twice per week, over a period of two weeks (a total of four injections). Mice were sacrificed 48 hours following the last administration and evaluated for SGLT2 mRNA levels in kidney. SGLT2 mRNA levels were determined by quantitative real-time PCR analysis according to standard procedures, using two different PCR primer probe sets, primer probe set (PPS) 534 and PPS 553. SGLT2 mRNA levels were normalized to cyclophilin mRNA levels, which were also measured by quantitative real-time PCR.

rat DGAT2 mRNA = assay: Dose-dependent inhibition of DGAT2 in A10 cells, 6.25-200 nM (Example 22, Table 82); assay type: cell-based
Description: Additional short antisense compounds targeted to DGAT2 mRNA were tested in vitro in a dose-response experiment. A10 cells were prepared as described above and treated with 6.25, 12.5, 25.0, 50.0, 100.0, and 200.0 nM short antisense compounds to determine if DGAT2 inhibition occurs in a dose-dependent manner. […] Results are presented as percent inhibition, relative to untreated control cells.

PCSK9 mRNA [1] = assay type: cell-based, human; conditions: Hep3B cells, 100 nM, relative to untreated control cells
PCSK9 mRNA [2] = assay: Dose-dependent inhibition of PCSK9 in Hep3B cells with EC50 (Example 19, Table 76); assay type: cell-based, human
Description: Short antisense compounds targeted to a PCSK9 nucleic acid were tested in a dose response experiment Hep3B cells. After the treatment period, RNA was isolated from the cells and PCSK9 mRNA levels were measured by quantitative real-time PCR, as described herein. PCSK9 mRNA levels were normalized to cyclophilin mRNA levels, as measured by real-time PCR using a cyclophilin-specific primer probe set. Results are presented as percent inhibition of PCSK9, relative to untreated control cells. […] As illustrated in the following table, PCSK9 mRNA levels were reduced in a dose-dependent manner.

GCGR mRNA = GCGR mRNA levels in liver of C57/BL6 mice, single i.p. dose (Example 4, Tables 35-41); assay type: in vivo, mouse; conditions: liver, single i.p. dose, 48 hours
Description: (§1) Eight-week old male C57/BL6 mice (Jackson Laboratory, Bar Harbor, Me.) were administered a single dose of GCGR oligonucleotide by intraperitoneal injection at a concentration of […]. Each dose group consisted of four animals. Shown in Table 31 are the sequences, motifs and conjugates of the GCGR antisense compounds used in this study. Bolded residues indicate 2′-O-methoxyethyl (2′-MOE) moieties. All compounds comprise phosphorothioate internucleoside linkages throughout and each cytosine is replaced with 5-methylcytosine. ISIS 386626, ISIS 386627 and ISIS 386628 further comprise a C16 conjugate group attached to the 2′-O position of the sugar via a diamide linkage (2′-OCH2C(═O)N(H)(CH2)4N(H)C(═O)—(CH2)15CH3). GCGR antisense compounds target published GCGR sequences, including Genbank® Accession No. BC031885.1 (SEQ ID NO: 7).
(§2) Mice were sacrificed 48 hours following injection to determine serum transaminase levels (Table 32); liver, white adipose tissue (WAT), spleen and kidney weight (Table 33); cholesterol, triglyceride and glucose levels (Table 34); GCGR mRNA levels (Tables 35-41); and full-length and total oligonucleotide concentration in liver and kidney (Table 42). Endpoints were assessed using methods described herein and well known to those of ordinary skill in the art. Data is included from a pre-treatment bleed (Pre-Bleed) and post-treatment bleed (Post-Bleed).
To determine whether the phenotypic changes shown above correlated with a decrease in GCGR mRNA, treated animals were evaluated for levels of target mRNA in liver by real time PCR according to methods described herein. Tables 35 to 41 show results from direct comparisons of the antisense compounds targeting GCGR nucleic acid for their effect on target expression. Results are expressed as percent of saline control.

[3] = Triglyceride, cholesterol and glucose levels, pre-bleed and post-bleed (Example 4, Table 34); assay type: in vivo, mouse; conditions: C57/BL6 mice, single i.p. dose, 48 hours
Description: as §1, §2

| Substance | SGLT2 mRNA in kidney, % change relative to saline (SGLT2 mRNA; primer probe set 534) | SGLT2 mRNA in kidney, % change relative to saline (SGLT2 mRNA; primer probe set 553) | also measured |
| --- | --- | --- | --- |
| 370717 (antisense eT*dA*dG*d[5mC]*d[5mC]*dA*d[5mC]*d[5mC]*dA*dA*d[5mC]*eT) [compound 370717] | −84.4% | −84.3% | – |
| 372562 (antisense eG*eT*d[5mC]*dT*dT*dG*dG*dA*dG*dG*dG*d[5mC]*e[5mC]*eG) [compound 372562] | – | – | percent inhibition of DGAT2 (rat DGAT2 mRNA; 6.25 nM): 0; percent inhibition of DGAT2 (rat DGAT2 mRNA; 12.5 nM): 0; percent inhibition of DGAT2 (rat DGAT2 mRNA; 50.0 nM): 36; percent inhibition of DGAT2 (rat DGAT2 mRNA; 100.0 nM): 48; percent inhibition of DGAT2 (rat DGAT2 mRNA; 200.0 nM): 75; percent inhibition of DGAT2 (rat DGAT2 mRNA; […]): 0 |
| 372568 (antisense eG*eA*d[5mC]*dA*d[5mC]*dT*dG*d[5mC]*dA*dG*dG*d[5mC]*e[5mC]*eA) [compound 372568] | – | – | percent inhibition of DGAT2 (rat DGAT2 mRNA; 6.25 nM): 0; percent inhibition of DGAT2 (rat DGAT2 mRNA; 12.5 nM): 0; percent inhibition of DGAT2 (rat DGAT2 mRNA; 50.0 nM): 26; percent inhibition of DGAT2 (rat DGAT2 mRNA; 100.0 nM): 72; percent inhibition of DGAT2 (rat DGAT2 mRNA; 200.0 nM): 69; percent inhibition of DGAT2 (rat DGAT2 mRNA; […]): 15 |
| 379684 (antisense eT*dG*dT*d[5mC]*dA*dG*d[5mC]*dA*dG*dG*dA*eT) [compound 379684] | −45.0% | −43.2% | – |
| 379685 (antisense eT*dG*dA*d[5mC]*d[5mC]*dA*dG*d[5mC]*dA*dG*dG*eA) [compound 379685] | −10.3% | −20.5% | – |
| 379686 (antisense eA*d[5mC]*d[5mC]*dA*d[5mC]*dA*dA*dG*d[5mC]*d[5mC]*dA*eA) [compound 379686] | −71.9% | −75.1% | – |
| 379687 (antisense eG*dA*dT*dG*dT*dT*dG*d[5mC]*dT*dG*dG*e[5mC]) [compound 379687] | −47.1% | −52.1% | – |
| 379688 (antisense e[5mC]*d[5mC]*dA*dA*dG*d[5mC]*d[5mC]*dA*d[5mC]*dT*dT*eG) [compound 379688] | −62.6% | −70.4% | – |
| 379689 (antisense eA*dG*dA*dG*d[5mC]*dG*d[5mC]*dA*dT*dT*d[5mC]*e[5mC]) [compound 379689] | −17.5% | −30.4% | – |
| 379690 (antisense eA*d[5mC]*dA*dG*dG*dT*dA*dG*dA*dG*dG*e[5mC]) [compound 379690] | −18.9% | −22.5% | – |
| 379691 (antisense eA*dG*dA*dT*d[5mC]*dT*dT*dG*dG*dT*dG*eA) [compound 379691] | −35.0% | −48.6% | – |
| 379692 (antisense eT*dG*dT*dT*d[5mC]*d[5mC]*dA*dG*d[5mC]*d[5mC]*d[5mC]*eA) [compound 379692] | −88.1% | −88.5% | – |
| 379693 (antisense e[5mC]*dA*dT*dG*dG*dT*dG*dA*dT*dG*d[5mC]*e[5mC]) [compound 379693] | −51.6% | −59.9% | – |
| 379694 (antisense eG*dA*d[5mC]*dG*dA*dA*dG*dG*dT*d[5mC]*dT*eG) [compound 379694] | −42.1% | −54.4% | – |
| 379695 (antisense eG*dG*dA*d[5mC]*dA*d[5mC]*d[5mC]*dG*dT*d[5mC]*dA*eG) [compound 379695] | −52.5% | −64.1% | – |
| 379696 (antisense e[5mC]*dA*dG*d[5mC]*dT*dT*d[5mC]*dA*dG*dG*dT*eA) [compound 379696] | −24.6% | −36.2% | – |
| 379697 (antisense e[5mC]*dT*dG*dG*d[5mC]*dA*dT*dG*dA*d[5mC]*d[5mC]*eA) [compound 379697] | −32.0% | −46.3% | – |
| 379698 (antisense eG*d[5mC]*dA*dG*d[5mC]*d[5mC]*d[5mC]*dA*d[5mC]*d[5mC]*dT*e[5mC]) [compound 379698] | −11.8% | −27.0% | – |
| 379699 (antisense eG*dG*d[5mC]*dA*dT*dG*dA*dG*d[5mC]*dT*dT*e[5mC]) [compound 379699] | −83.5% | −85.8% | – |
| 379700 (antisense e[5mC]*d[5mC]*dA*dG*d[5mC]*dA*dT*dG*dA*dG*dT*e[5mC]) [compound 379700] | −2.8% | −16.4% | – |
| 379701 (antisense e[5mC]*d[5mC]*dA*dT*dG*dG*dT*dG*dA*dA*dG*eA) [compound 379701] | −0.3% | −11.9% | – |
| 379702 (antisense eG*d[5mC]*dA*d[5mC]*dA*d[5mC]*dA*dG*d[5mC]*dT*dG*e[5mC]) [compound 379702] | −87.8% | −89.5% | – |
| 379703 (antisense eG*d[5mC]*d[5mC]*dG*dG*dA*dG*dA*d[5mC]*dT*dG*eA) [compound 379703] | −44.2% | −45.9% | – |
| 400353 (antisense eA*e[5mC]*dA*d[5mC]*d[5mC]*d[5mC]*dT*d[5mC]*dA*d[5mC]*d[5mC]*d[5mC]*e[5mC]*e[5mC]) [compound 400353] | – | – | % Inhibition Range (PCSK9 mRNA) (PCSK9 mRNA [1]): 10-20%; % Inhib (PCSK9 mRNA) (PCSK9 mRNA [1]; 0 = no reduction observed): 19%; % Inhibition of PCSK9 (PCSK9 mRNA [2]; 5 nM): 15%; % Inhibition of PCSK9 (PCSK9 mRNA [2]; 10 nM): 27%; % Inhibition of PCSK9 (PCSK9 mRNA [2]; 20 nM): 23%; % Inhibition of PCSK9 (PCSK9 mRNA [2]; 40 nM): 43%; % Inhibition of PCSK9 (PCSK9 mRNA [2]; 80 nM): 54%; % Inhibition of PCSK9 (PCSK9 mRNA [2]; 160 nM): 48% |
| ISIS 386626: GCGR 2-10-2 MOE gapmer with C16 conjugate group at the 2′-O position via a diamide linkage (antisense GCTTCTCCATCATA; chemistry not fully specified) | – | – | GCGR mRNA expression (GCGR mRNA): greatest decrease; post-bleed glucose levels [3]: decreased in a dose-dependent manner |
